In brackets after ≈: the same amount, converted by molar mass.
Key:
[1] = system: RICE INDICA EFF; assay: Test C rice paddy; format: in vivo; settings: Oryza sativa, 504 h, 21 days, read-out: plant response
How it was run: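 Greenhouse paddy pots of saturated silt loam received rice seedlings at the 2.0–2.5 leaf stage, transplanted weed seedlings or sprouted tubers, and barnyardgrass seed. After flooding to 3 cm at 3–4 days, solvent-formulated test chemical went straight into the water within 24 h.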

[2] = system: WATERCHESTNUT; assay: Test C rice paddy; format: in vivo, Eleocharis spp.; settings: Eleocharis, 504 h, 21 days, read-out: plant response
How it was run: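 In this flooded-paddy assay, rice and weeds grew in saturated silt loam under greenhouse conditions, and the test compound was dosed into the 3 cm standing water shortly after flooding.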

[3] = system: Fusarium oxysporum f. sp. cucumerinum; assay: Example L cucumber wilt; format: in vivo; settings: 336 h, 5 kg/ha, read-out: disease control rating, Ex. L
Procedure: […] Seeds and soil were then inoculated with a mixture of sand, cereal and mycelium of the fungus Fusarium oxysporum f. sp. cucumerinum, causal agent of cucumber wilt, and incubated in a growth chamber at 30° C. for 14 days. Disease ratings were then made.

[4] = system: Phytophthora infestans; assay: whole plant or invertebrate; format: in vivo; settings: Phytophthora infestans, in Solanum lycopersicum, read-out: disease control rating, Ex. H, 100 PPM
[5] = system: YELLOW NUTSEDGE; assay: Test C rice paddy; format: in vivo, Cyperus esculentus; settings: 21 days
Text: Sixteen cm diameter Airlite plastic pots were partially filled with Tama slit loam soil and the soil saturated with water. Japonica and Indica rice seedlings a the 2.0 to 2.5 leaf stage were transplanted into 1/3 of the pots. Into another third of the pots were transplanted seedling or sprouted tubers of water plantain (Alisma trivale), Scripus (Scirpus paludosus), Cyperus (Cyperus esculentus), and arrowhead (Sagittaria spp.). The remaining pots were planted with barnyardgrass (Echinochloa crusgalli) seeds and sprouted tubes of water chestnut (Eleocharis spp.). These weeds all represent major rice weeds or genera of weeds important in rice. Three to four days after planting, the water level was raised to 3 cm (about 1200 ml/pot) and maintained a this level throughout the test. Chemical treatments were applied directly to the paddy water, within 24 hours of raising the water, after being formulated in a nonphytotoxic solvent. The pots were maintained in the greenhouse.

[6] = system: GIANT FOXTAIL; assay: Test D; format: in vivo, Setaria faberii
[7] = system: Rhizoctonia solani; assay: Example K cotton blight; format: in vivo; settings: 336 h, 5 kg/ha, read-out: disease control rating, Ex. K
Procedure: […] Seeds and soil were then inoculated with a mixture of sand, cereal and mycelium of the fungus Rhizoctonia solani, causal agent of cotton blight, and incubated in a growth chamber at 30° C. for 14 days. Disease ratings were then made.

[8] = system: Erysiphe graminis f. sp. tritici; assay: Example D wheat powdery mildew; format: in vivo; settings: Blumeria graminis, 144 h; 100 PPM; read-out: disease control rating, Ex. D
How it was run: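 Wheat seedlings receive a run-off foliar spray of compound suspended in purified water at 100 or 20 ppm. The carrier holds 250 ppm TREM 014 plus acetone amounting to 6% of final volume.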

[9] = system: Candida albicans ATCC 11651; assay: In vitro antifungal MIC, microtiter broth dilution; settings: Candida albicans, ATCC11651, 24 h, read-out: MIC values, C. albicans, 30°, 24 hours
[10] = system: Botrytis cinerea; assay: Example C bean grey mold; format: in vivo; settings: Botrytis cinerea, 24 h, 100 PPM; read-out: disease control rating, Ex. C
How it was run: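 Compound is first dissolved in acetone, the acetone making up 6% of the final volume. The solution is then suspended in purified water with 250 ppm of the polyhydric alcohol ester surfactant TREM 014 to give 100 or 20 ppm. Seedlings of broad bean receive this spray until liquid runs off.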

[11] = system: Plasmorpara viticola; assay: Example I grape downy mildew; format: in vivo; settings: read-out: disease control rating, Ex. I
How it was run: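 Compounds were dissolved in acetone (6% of final volume) and suspended at 100 or 20 ppm in purified water with 250 ppm TREM 014 surfactant (polyhydric alcohol esters). Grape seedlings were sprayed with this suspension to run-off.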

[12] = system: PURPLE NUTSEDGE; assay: Test D; format: in vivo, Cyperus rotundus
[13] = system: Pythium aphanadermatum; assay: Example J cucumber damping off; format: in vivo; settings: Pythium, 336 h; 5 kg/ha; read-out: disease control rating, Ex. J
How it was run: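 Seeds and soil were inoculated with a mix of sand, cereal and Pythium aphanadermatum mycelium, the fungus responsible for cucumber damping off. They were kept in a growth chamber at 30° C. for 14 days, and disease was then rated to assess control.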

For `C=C(c1ccccc1Cl)C(O)(Cn1cncn1)c1ccc(F)cc1F` (stereo not shown) [Example 35], the pest or weed control at 64 g/ha ([1]; 0064 G/HA) was 0%, the pest or weed control at 125 g/ha ([1]; 0125 G/HA) was 0% and the pest or weed control at 250 g/ha ([1]; 0250 G/HA) was 0%. The pest or weed control at 500 g/ha ([1]; 0500 G/HA) was 0%, the pest or weed control at 1000 g/ha ([1]; 1000 G/HA) was 20% and the pest or weed control at 64 g/ha ([2]; 0064 G/HA) was 60%. The pest or weed control at 125 g/ha ([2]; 0125 G/HA) was 40%, the pest or weed control at 250 g/ha ([2]; 0250 G/HA) was 60% and the pest or weed control at 500 g/ha ([2]; 0500 G/HA) was 0%. For the same compound, the pest or weed control at 1000 g/ha ([2]; 1000 G/HA) was 0%, the pest or weed control at 5000 g/ha [3] was 0% and the pest or weed control at 100 ppm [4] was 0%. For the same compound, the plant response ([5]; 0064 G/HA) was 0, the plant response ([5]; 0125 G/HA) was 0 and the plant response ([5]; 0250 G/HA) was 60. It also gave a plant response ([5]; 0500 G/HA) of 95, a plant response ([5]; 1000 G/HA) of 100 and a plant response ([6]; POSTEMERGENCE 0250 GM/HA) of 0%. For the same compound, the plant response ([6]; POSTEMERGENCE 0500 GM/HA) was 60%, the plant response ([6]; PREEMERGENCE 0064 GM/HA) was 0% and the plant response ([6]; PREEMERGENCE 0125 GM/HA) was 50%. For the same compound, the plant response ([6]; PREEMERGENCE 0250 GM/HA) was 80%, the plant response ([6]; PREEMERGENCE 0500 GM/HA) was 100% and the pest or weed control at 5000 g/ha [7] was 0%. It also gave a pest or weed control at 100 ppm [8] of 100%, an MIC [9] of 0.03 µg/mL (≈ 0.0829 µM) and a pest or weed control at 100 ppm [10] of 96%. The pest or weed control at 100 ppm [11] was 26%, the plant response ([12]; POSTEMERGENCE 0250 GM/HA) was 0% and the plant response ([12]; POSTEMERGENCE 0500 GM/HA) was 0%. For the same compound, the plant response ([12]; PREEMERGENCE 0125 GM/HA) was 0%, the plant response ([12]; PREEMERGENCE 0250 GM/HA) was 0% and the plant response ([12]; PREEMERGENCE 0500 GM/HA) was 50%. For the same compound, the pest or weed control at 5000 g/ha [13] was 0%.
